Results reported in ChEMBL document CHEMBL1146582, “Phenolic constituents from Dalbergia cochinchinensis” (J Nat Prod, 2003).

How the values were obtained:
[1] = Inhibition of testerone 5-alpha-reductase at 50 ug/mL
[2] = Inhibition of testerone 5-alpha-reductase at 25 ug/mL
[3] = Inhibition of testerone 5-alpha-reductase at 100 ug/mL

For `COC1=CC(=O)C(Cc2oc3cc(OC)c(O)cc3c2-c2ccccc2)=CC1(C/C=C/c1ccccc1)OC` (stereo not drawn), which inhibition [1] is on record?
The inhibition was 3.8%.

What about the inhibition [2] of the same compound?
Its inhibition is 0.6%.

And the inhibition [3]?
The inhibition was 17%.

For `COc1cc(O)ccc1C(=O)/C=C/c1ccccc1`, which inhibition [1] is on record?
The inhibition was 20.7%.

What about the inhibition [2] of the same compound?
Its inhibition is 19.5%.

And the inhibition [3]?
The inhibition was 22.8%.

Which inhibition [1] does the source give for `C=CC(c1ccccc1)c1cc(O)c(OC)cc1OC` (stereo not drawn) here?
Its inhibition is 18.9%.

What about the inhibition [2] of the same compound?
The inhibition was 8.2%.

What about the inhibition [3] of the same compound?
Its inhibition is 51.8%.

What does the source list for `COc1cc2oc(Cc3cc(OC)c(OC)cc3OC/C=C/c3ccccc3)c(-c3ccccc3)c2cc1O`?
inhibition [1]: 15.9%; inhibition [2]: 11.5%; inhibition [3]: 18.1%

For `COC1=CC(=O)c2cc(-c3ccccc3)c3cc(O)c(OC)cc3c2C1=O`, which inhibition [1] is on record?
The inhibition was 52%.

And the inhibition [2]?
Its inhibition is 42.8%.

And the inhibition [3]?
Its inhibition is 65.6%.

What does the source list for `CC1(C)[C@@H](O)CC[C@]2(C)[C@H]3C(=O)C=C4[C@@H]5C[C@@](C)(C(=O)O)CC[C@]5(C)CC[C@@]4(C)[C@]3(C)CC[C@@H]12`?
inhibition [1]: 64.7%; inhibition [2]: 31.7%; inhibition [3]: 87.1%
